Reference: patent US9180174B2, “Conjugates comprising mannan and myelin oligodentrocyte glycoprotein (MOG)” (priority 2008, dated 2015)
Ends that are not written are not given here.

Assays:
EAE = EAE in animal models (summary statements); type: in vivo; conditions: unconjugated peptide
Description: (§1) Groups of female animals (age range 6-10 week old C57BL/6 or SJL/J mice and 12-15 week old Lewis rats) were immunized intra-dermally with 100 μl solution containing 30 μg peptide (MOG35-55) or 50 μg PLP139-151 peptide for mice and 30 μg MBP83-99 for Lewis rats) conjugated to 70 μg oxidized or reduced mannan diluted in bi-carbonate buffer, pH 9.0. As controls, age matched groups of animals were vaccinated with oxidized or reduced mannan alone, saline or 30-50 μg of peptide alone. Three consecutive vaccinations were performed spaced 15 days apart. Fifteen days after the last vaccination EAE was induced.

splenocytes [1] = assay: T cell priming and proliferation assay, [3H]-thymidine incorporation, ex vivo MOG35-55 recall; type: cell-based, C57BL/6 mice; conditions: day 25 post EAE induction, versus mannan alone or PBS; FIGS. 7 and 8
Description: Isolated splenocytes were cultured for 72 h in 96-well plates in RPMI 1640 (Invitrogen Life Technologies, Gaithersburg, Md.) containing 10% heat-inactivated FCS, 50 μM 2-ME, and increasing concentrations of MOG35-55 peptide. Cells were stimulated in triplicate at 2×10^6 cells/ml in round-bottom, 96-well plates (Costar). Cells were pulsed with 1 μCi/5×10^5 cells [^3H]-thymidine in triplicate (Amersham Radiochemicals) for the last 16 h of culture. [^3H]-thymidine incorporation was measured by liquid scintillation counting (Wallac, Turku, Finland). Results are expressed as the stimulation index (ratio between radioactivity counts of cells cultured in presence of peptide and cells cultured with media alone).

MOG35-55-EAE [2] = assay: Prophylactic vaccination before MOG35-55-EAE induction, clinical score and body weight; type: in vivo, C57BL/6 mice; conditions: for protection from MOG35-55-EAE development (clinical score): three vaccinations 15 days apart, EAE induced 15 days after the last, FIG. 1
MOG35-55-EAE [3] = assay: Histopathological analysis of spinal cord and brain after MOG35-55-EAE induction; type: in vivo, C57BL/6 mice
splenocytes [4] = assay: Cytokines in splenocyte culture supernatants (cytometric bead array, IL-17 ELISA); type: cell-based, C57BL/6 mice; conditions: 10 μg/ml MOG35-55, day 25 post EAE induction; FIG. 9
Text: The mouse Th1/Th2 cytokine cytometric bead array kit (BD Biosciences) was used to measure cytokine levels in culture supernatants according to the manufacturer's instructions. The cytokines measured with this kit were: IL-2, IL-4, IL-5, IFN-γ and TNF-α. In addition a mouse IL-17 ELISA set (R&D Systems, Germany) was used to measure cytokine secretion from splenocyte cell culture supernatants according to manufacturer's instructions. The sensitivity of the assay for different cytokines was as follows: IL-2, IL-4 and IL-5=5.0 pg/ml; IFN-γ=2.5 pg/ml; TNF-α=6.3 pg/ml.

PLP139-151-EAE = assay: Prophylactic vaccination before PLP139-151-EAE induction, clinical score; type: in vivo, SJL/J mice; conditions: FIG. 10; for clinical score (peak): 6-grade scale, 0.5 = weight loss
Description: as §1
EAE was induced in SJL/J mice using a standard protocol. 150 μg of PLP139-151 was dissolved in PBS and emulsified in an equal volume of CFA (containing […] of heat killed Mycobacterium Tuberculosis HR37a, Sigma). On Day 0 (day of disease induction), one s.c injection was given by injecting 150 μg PLP139-151/200 μl per mouse in both of the flanks. Each mouse also received 400 ng pertussis toxin (Sigma, P2980) (i.p) dissolved in 200 μl PBS. On day 2, mice were received a booster of pertussis toxin (200 ng pertussis toxin dissolved in 200 μl PBS per mouse) Animals were daily evaluated for clinical signs of disease, starting from day 1 post immunisation, using a 6-grade clinical scale: 0, normal animal; 0.5, weight loss; 1, inability to elevate the tail above the horizontal level, tail weakness; 2, tail paralysis; 3, tail paralysis/hind limb paresis; 4, hind limb paralysis/forelimb weakness; 5, quadriplegia/moribund; 6, death from EAE. Moreover, animals were daily weighted throughout the entire experimental period.

[5] = 24 days after EAE induction, FIG. 5

Question: “H-Glu-Asn-Pro-Val-Val-His-Phe-Phe-Lys-Asn-Ile-Val-Thr-Pro-Arg-Thr-Pro-OH (H-ENPVVHFFKNIVTPRTP-OH) [MBP83-99]” was tested. Which “induction of EAE by the linear peptide” value (EAE) did it give?
Answer: Its value is “induce EAE”.

Question: How did the “induction of EAE by the linear peptide” value (EAE) turn out when “H-His-Ser-Leu-Gly-Lys-Trp-Leu-Gly-His-Pro-Asp-Lys-Phe-OH (H-HSLGKWLGHPDKF-OH) [PLP139-151]” was run?
Answer: Its value is “induce EAE”.

Question: “H-Met-Glu-Val-Gly-Trp-Tyr-Arg-Pro[Ser]-Pro-Phe-Ser-Arg-Val-Val-His-Leu-Tyr-Arg-Asn-Gly-Lys-OH [MOG35-55, reference compound]” was tested. Which proliferation of splenocytes (splenocytes [1]) did it give?
Answer: The proliferation of splenocytes was “did not show a reduction”.

Question: And the “induction of EAE by the linear peptide” value (EAE)?
Answer: The value was “induce EAE”.

Question: What about the “disease course after day 20 of disease progression” value (MOG35-55-EAE [2]; after day 20, FIGS. 3 and 4) of the same substance?
Answer: The value was “exacerbated”.

Question: What about the “EAE compared to non vaccinated controls at initial stages of disease” value (MOG35-55-EAE [2]; initial stages, FIGS. 3 and 4) of the same substance?
Answer: The value was “significantly lower”.

Question: What about the “susceptibility to MOG-EAE after vaccination with peptide alone” value (MOG35-55-EAE [2]; three prior challenges with unconjugated peptide, FIGS. 3 and 4) of the same substance?
Answer: The value was “still susceptible to MOG-EAE”.

Question: And the “delay of EAE initiation” value (MOG35-55-EAE [2]; versus non-vaccinated controls, FIGS. 3 and 4)?
Answer: The value was 3 days.

Question: Which proliferation of splenocytes (splenocytes [1]) does the source give for “oxidized mannan-MOG35-55: MOG35-55 peptide with a [(Lys-Gly)5] bridge conjugated to oxidized mannan via Schiff base formation (MEVGWYRSPFSRVVHLYRNGK; also: (Lys-Gly)5 bridge, site not given here, conjugated to oxidized mannan via Schiff base; UniProt Q61885 63-83, looked up, fragment)” here?
Answer: Its proliferation of splenocytes is “Significant reduced proliferation”.

Question: What about the “demyelinating lesions in the spinal cord” value (MOG35-55-EAE [3]; [5]) of the same substance?
Answer: The value was “no demyelinating lesions”.

Question: And the “inflammatory infiltration in the spinal cord” value (MOG35-55-EAE [3]; [5])?
Answer: The value was “little inflammatory infiltration”.

Question: And the “inflammatory and demyelination index, brain and spinal cord” value (MOG35-55-EAE [3]; individual mice, FIG. 6)?
Answer: Its value is “marked reduction”.

Question: What about the “amount of IL-17 secreted by MOG35-55 specific T cells” value (splenocytes [4]) of the same substance?
Answer: The value was “reduction”.

Question: What about the “levels of Th1 cytokines (IFN-γ, TNF-α, IL-2)” value (splenocytes [4]) of the same substance?
Answer: Its value is “reduction”.

Question: And the “wasting symptoms (daily weight measurement)” value (MOG35-55-EAE [2]; FIG. 2)?
Answer: Its value is “absence of wasting symptoms”.

Question: And the “protection from MOG35-55-EAE development (clinical score)” value (shortened to “protection … (clinical score)”) (MOG35-55-EAE [2])?
Answer: The value was “significant protection”.

Question: And the “protection … (clinical score)” value (MOG35-55-EAE [2]; listed as MOG35-55 peptide conjugated to oxidized mannan)?
Answer: Its value is “greatest degree of protection”.

Question: How did the “clinical score (peak)” value (PLP139-151-EAE) turn out when “oxidized mannan-PLP139-151: PLP139-151 peptide with a [(Lys-Gly)5] bridge conjugated to oxidized mannan via Schiff base formation” was run?
Answer: The value was 0.5.

Question: What about the “induction of / protection from PLP139-151-EAE” value (from here on “induction of / protection”) (PLP139-151-EAE) of the same substance?
Answer: Its value is “did not induce EAE”.

Question: And the “induction of / protection” value (PLP139-151-EAE; listed as PLP139-151-oxidized mannan)?
Answer: Its value is “completely protected”.

Question: Which proliferation of splenocytes (splenocytes [1]) does the source give for “reduced mannan-MOG35-55: MOG35-55 peptide with a [(Lys-Gly)5] bridge conjugated to mannan, reduced with sodium borohydride (MEVGWYRSPFSRVVHLYRNGK; also: (KG)5 bridge, site not given here, conjugated to mannan, reduced with sodium borohydride; UniProt Q61885 63-83, looked up, fragment)” here?
Answer: Its proliferation of splenocytes is “Significant reduced proliferation”.

Question: What about the “extent of lymphocyte infiltration and demyelination (overall protective effect)” value (MOG35-55-EAE [3]; [5]) of the same substance?
Answer: Its value is “Intermediate protective effects”.

Question: And the “amount of IL-17 secreted by MOG35-55 specific T cells” value (splenocytes [4])?
Answer: Its value is “reduction”.

Question: And the “levels of Th1 cytokines (IFN-γ, TNF-α, IL-2)” value (splenocytes [4])?
Answer: The value was “reduction”.

Question: What about the “protection … (clinical score)” value (MOG35-55-EAE [2]) of the same substance?
Answer: Its value is “significant protection”.

Question: What about the “protection … (clinical score)” value (MOG35-55-EAE [2]; listed as MOG35-55 peptide conjugated to reduced mannan) of the same substance?
Answer: The value was “significant inhibition from disease manifestation”.

Question: For “reduced mannan-PLP139-151: PLP139-151 peptide with a [(Lys-Gly)5] bridge conjugated to mannan, reduced with sodium borohydride”, which “clinical score (peak)” value (PLP139-151-EAE) is on record?
Answer: The value was 0.5.

Question: What about the “induction of / protection” value (PLP139-151-EAE) of the same substance?
Answer: Its value is “did not induce EAE”.
